Reference: publication PMC7796559, “Connecting the conformational behavior of cyclic octadepsipeptides with their ionophoric property and membrane permeability” (Organic & biomolecular chemistry, 2020)
Where two headings read alike, the source gives them in different places. Blank lines part the entries; values can stand above or below the compound they belong to. Non-standard residues stand in square brackets, D forms with d. Residues, ends and D or L forms follow the SMILES beside them. dPhLac = O=C(O)[C@H](O)Cc1ccccc1; NMeL = CN[C@@H](CC(C)C)C(=O)O; dLac = C[C@@H](O)C(=O)O

Assays:
[1] = test system: nematodes; details: cited from earlier work
[2] = PAMPA with and without potassium salt; assay type: in vitro ADME; details: for recovery at 10 μM / Papp at 10 µM / Papp: PAMPA; for PAMPA permeability (in words): independent of the addition of potassium salt
Method: PAMPA was performed using a 96-well filter donor plate with 0.45 μm hydrophobic Immobilon-P membrane supports (Millipore MAIPNTR10) and a 96-well Teflon acceptor plate (Millipore MSSACCEPTOR). The donor plate was prepared by applying 5 μL of 1% (w/v) soybean lecithin (90%, Alfa Aesar) in n-dodecane to each filter. The acceptor plate was prepared by addition of 300 μl of pH = 7.4 phosphate-buffered saline (PBS) with 5% DMSO to each well. Donor solutions composed of PBS with 5% DMSO, 10 μM carbamazepine standard, and 10 μM compound 1, 2 or 8 were prepared with and without additional KCl (0.27 mM or 100.27 mM K^+ concentration) before addition of 150 μl to each donor well, with all conditions run in quadruplicate. The donor plate was then loaded into the acceptor plate and was left in a sealed, damp chamber at 25 °C for approximately 17 hours (exact times recorded and used in calculation of Pe). The plates were then separated, and 100 μl of solution from each well was transferred to another plate for LC-MS analysis. Permeabilities were calculated identically to a previous study.[80]

[3] = Site-to-site exchange rates from EXSY peaks in EASY-ROESY; assay type: physicochemical; details: for kex / k1 / k2: EASY-ROESY, mixing time 100 ms, CDCl3; for k1 / k2: site-to-site exchange rate
Method: Following ref. [76] and [77], site-to-site rates were determined in a straightforward way by taking the logarithm of matrix A = M × M0^−1 containing the volumes of cross- and diagonal peaks of the exchanging sites (Hα of Mle^2, Mle^6 and Mle^26) divided by their magnetic fraction M0 (i.e. the relative intensities of the corresponding resonances in the ^1H NMR spectrum) as an approximation of M(0): (1) M=e^Ltm×M0 (2) A=(IAA/M0AIAB/M0BIAC/M0CIBA/M0AIBB/M0BIBC/M0CICA/M0AICB/M0BICC/M0C) (3) 1/tmln(A)=(kBA+kCA−R1kABkACkBA−kAB−R10kBC0−kAC−R1)
L is the difference between the kinetic matrix K containing the site-to-site rate constants and the relaxation matrix R, tm is the mixing time used in the ROESY experiment, and Ri are the auto-relaxation rates of the exchanging sites in the symmetric (A) and asymmetric (B, C) conformations.
EXSY peak volumes extracted from the ROESY spectrum (shown schematically in Fig. 13) and the magnetic fractions in the 1H NMR spectrum are inserted in matrix A (eqn 4). Site-to-site rates are obtained by taking the logarithm of matrix A and dividing the result by the mixing time (0.1 s) (eqn 5): kAB = kAC = 0.09 s^−1 and kBA = kCA = 0.16 s^−1 (averaged rates). Calculations were carried out in Mathematica 12.0.[78] (4) A=(77.9/11.52/1.51.55/1.51.59/1236/1.50/1.51.75/10/1.5200/1.5) (5) 1/0.1ln(A)=(43.55240.090.100.1450.580.000.170.0048.9)

[4] = test system: efflux transporter P-gp; parameters: method as in PMID 25131706; details: cited from earlier work
[5] = Cation binding in apolar solvent (chloroform) by NMR; assay type: physicochemical; details: CDCl3; solid KSCN and sonication (1) or saturated KSCN solution in D2O, phase separation (2)
Method: It is known that valinomycin, a cyclic dodecadepsipeptide, as well as some crown ethers can bind cations even in an apolar solvent.[59]–[61] This ability is an indirect evidence that the ion-bound complex may exist inside the membrane interior, i.e. that ion transport across a membrane is possible. To assess if the cyclic octadepsipeptides are also able to bind cations in an apolar solvent, KSCN was added to a solution of 1 in chloroform and sonicated for several hours.

[6] = test system: Caco-2; parameters: method as in PMID 26067057, PMID 32121188; details: cited from earlier work
[7] = parameters: method as in PMID 26067057; details: PAMPA; cited from earlier work
[8] = parameters: method as in PMID 22138252, PMID 24061379; details: cited from earlier work
[9] = parameters: method as in PMID 22138252, PMID 24061379; details: cited from earlier work; remark: listed apart in the source
[10] = test system: mycobacteria; parameters: method as in PMID 5879163; details: cited from earlier work
[11] = test system: ryanodine-binding; parameters: method as in PMID 20057513; details: cited from earlier work
[12] = pH 7.4, PAMPA, + 100 mM KCl, read-out: Average Recovery Rate
[13] = pH 7.4, PAMPA, without additional KCl, read-out: Average Recovery Rate
[14] = without additional KCl (0.27 mM K+), PBS pH 7.4 with 5% DMSO, 10 μM compound, approx. 17 hours, 25 °C, read-out: Average Permeability with standard deviation in brackets
[15] = worked example, mixing time 0.1 s

SMILES: CC(C)CC1C(=O)OC(Cc2ccccc2)C(=O)N(C)C(CC(C)C)C(=O)OC(C)C(=O)N(C)C(CC(C)C)C(=O)OC(Cc2ccccc2)C(=O)N(C)C(CC(C)C)C(=O)OC(C)C(=O)N1C (single isomer, unassigned) [enantiomer of PF1022A]
Anthelmintic activity (in words) [1]: no anthelmintic activity

recovery at 10 μM [2, 12]: 6.8%
recovery at 10 μM [2, 13]: 26.2%
Papp at 10 µM [2, 14]: 0.08 ×10⁻⁶ cm/s
PAMPA permeability (in words) [2]: no permeability was detected
SMILES: CC(C)C[C@H]1C(=O)O[C@H](Cc2ccccc2)C(=O)N(C)[C@@H](CC(C)C)C(=O)O[C@H](C)C(=O)N(C)N(CC(C)C)C(=O)O[C@H](Cc2ccccc2)C(=O)N(C)N(CC(C)C)C(=O)O[C@H](C)C(=O)N1C [Bis-aza analog (8)]
Biological activity weaker by a factor compared to 1 [1]: 5–10
kex [3]: 0.19 s⁻¹
k1 [3]: 0.17 s⁻¹
k2 [3]: 0.02 s⁻¹

Papp at 10 µM ([2]; pH 7.4, 10 μM standard in donor solutions, with and without 100 mM KCl, read-out: Permeability of PAMPA control): 7.94 to 11.1 ×10⁻⁶ cm/s
recovery at 10 μM ([2]; pH 7.4, 10 μM standard in donor solutions, with and without 100 mM KCl, read-out: Recovery rate of PAMPA control): 85.4 to 200%
SMILES: NC(=O)N1c2ccccc2C=Cc2ccccc21 [Carbamazepine, carbamazepine, reference compound]

recovery at 10 μM [2, 12]: 27.3%
recovery at 10 μM [2, 13]: 78.7%
PAMPA permeability (in words) [2]: no permeability was detected
SMILES: CC(C)C[C@H]1C(=O)O[C@H](Cc2ccc(N3CCOCC3)cc2)C(=O)N(C)[C@@H](CC(C)C)C(=O)O[C@H](C)C(=O)N(C)[C@@H](CC(C)C)C(=O)O[C@H](Cc2ccc(N3CCOCC3)cc2)C(=O)N(C)[C@@H](CC(C)C)C(=O)O[C@H](C)C(=O)N1C [Emodepside (2), reference compound]
Substrate of the efflux transporter P-gp [4]: substrate
Conformation detected in chloroform after contact with KSCN [5]: the symmetric conformation is present almost exclusively
Anthelmintic activity relative to PF1022A (in words) [1]: increased anthelmintic activity
kex [3]: 0.18 s⁻¹
k1 [3]: 0.12 s⁻¹
k2 [3]: 0.06 s⁻¹

SMILES: CC(C)[C@H]1C(=O)O[C@H](C(C)C)C(=O)N(C)[C@@H](C(C)C)C(=O)O[C@H](C(C)C)C(=O)N(C)[C@@H](C(C)C)C(=O)O[C@H](C(C)C)C(=O)N1C [Enniatin B, enniatin B]
Permeability in Caco-2 permeability assay [6]: 610 ×10⁻⁶ cm/s
log Pe [7]: −4.73

SMILES: CC(C)C[C@H]1C(=O)O[C@H](Cc2ccc(I)cc2)C(=O)N(C)[C@@H](CC(C)C)C(=O)O[C@H](C)C(=O)N(C)[C@@H](CC(C)C)C(=O)O[C@H](Cc2ccccc2)C(=O)N(C)[C@@H](CC(C)C)C(=O)O[C@H](C)C(=O)N1C [Mono-iodo analog (11)]
kex [3]: 0.26 s⁻¹
k1 [3]: 0.17 s⁻¹
k2 [3]: 0.09 s⁻¹

SMILES: CC(C)CC1C(=O)OC(Cc2ccccc2)C(=O)N(C)C(CC(C)C)C(=O)OC(C)C(=O)N(C)C(CC(C)C)C(=O)OC(Cc2ccccc2)C(=O)N(C)C(CC(C)C)C(=O)OC(C)C(=O)N1C (stereo not drawn) [PF1022A (1)]
Papp ([2]; pH 7.4, PAMPA, + 100 mM KCl (100.27 mM K+), PBS pH 7.4 with 5% DMSO, 10 μM compound, approx. 17 hours, 25 °C, read-out: Average Permeability with standard deviation in brackets): 0.02 ×10⁻⁶ cm/s
recovery at 10 μM [2, 12]: 57.4%
recovery at 10 μM [2, 13]: 18.4%
Papp [2, 14]: 0.06 ×10⁻⁶ cm/s
PAMPA permeability (in words) [2]: no permeability was detected
Conformation detected in chloroform after contact with KSCN [5]: only the symmetric conformation could be detected
kex [3]: 0.25 s⁻¹
k1 [3]: 0.16 s⁻¹
k2 [3]: 0.09 s⁻¹
kAB = kAC (averaged site-to-site rate) [3, 15]: 0.09 s⁻¹
kBA = kCA (averaged site-to-site rate) [3, 15]: 0.16 s⁻¹

SMILES: CC(C)C1OC(=O)C(C(C)C)N(C)C1=O (stereo not drawn) [compound 3, 3,6-di-(propan-2-yl)-4-methyl-morpholine-2,5-dione]
Antioxidant activity (in words) [8]: moderate
Antimicrobial activity (in words) [9]: moderate

SMILES: CC(C)C[C@H]1C(=O)O[C@H](C(C)C)C(=O)N(C)[C@@H](CC(C)C)C(=O)O[C@H](C(C)C)C(=O)N1C [compound 4, cyclo-(N-methyl L-leucine D-hydroxyisovaleric acid)2]
Activity against mycobacteria (in words) [10]: no activity

SMILES: CCCCC[C@H]1OC(=O)[C@H](C)N(C)C(=O)[C@@H](CCCCC)OC(=O)[C@H](C)N(C)C(=O)[C@@H](CCCCC)OC(=O)[C@H](C)N(C)C(=O)[C@@H](CCCCC)OC(=O)[C@H](C)N(C)C1=O [compound 7, verticilide]
Ryanodine binding (in words) [11]: ryanodine-binding inhibitor

SMILES: CC(C)C[C@H]1C(=O)O[C@H](Cc2ccccc2)C(=O)N(C)[C@@H](CC(C)C)C(=O)O[C@H](C)C(=O)N(C)[C@@H](CC(C)C)C(=O)N2CCC[C@@H]2C(=O)N2CCC[C@H]2C(=O)O[C@H](C)C(=O)N1C [compound 9] (cyclo([dLac][NMeL][dPhLac][NMeL][dLac][NMeL][dP]P))
Biological activity higher by a factor compared to 1 [1]: 2

SMILES: CC(C)C[C@H]1C(=O)O[C@H](Cc2ccccc2)C(=S)N(C)[C@@H](CC(C)C)C(=O)O[C@H](C)C(=S)N(C)[C@@H](CC(C)C)C(=O)O[C@H](Cc2ccccc2)C(=S)N(C)[C@@H](CC(C)C)C(=O)O[C@H](C)C(=S)N1C [compound 10]
Activity increased (times) compared to 1 [1]: 2.5
